“And” between values parts separate entries of the source, which are not always exact repeats. Equal values may be shown once. Toxic doses and inconclusive results are not listed.

From PubChem BioAssay AID256 (DTP/NCI, 2004) come the findings set out here.

For the experiment, the system named is CD2F1 mice, L1210 leukemia ip, survival T/C. The experiment can be described thus: NCI In Vivo Anticancer Drug Screen. Data for tumor model L1210 Leukemia (intraperitoneal) in CD2F1 (CDF1) mice. The following applies: higher = longer survival. Summed up:
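Activity against a transplanted murine tumor was judged by comparing the compound group with a vehicle group. The outcome in the treated animals was divided by that in the controls.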

Setting [1] is: endpoint: mean survival time, dose: 100.0 mg/kg/injection, schedule: Q04DX003 (ip), vehicle: saline with Tween-80.
Where [2] appears, read: endpoint: mean survival time, dose: 200.0 mg/kg/injection, schedule: Q04DX003 (ip), vehicle: saline with Tween-80.
The mark [3] stands for this setting: endpoint: mean survival time, dose: 400.0 mg/kg/injection, schedule: Q04DX003 (ip), vehicle: saline with Tween-80.
[4] abbreviates: endpoint: mean survival time, dose: 100.0 mg/kg/injection, schedule: Q01DX009 (ip), vehicle: saline with Tween-80.
The mark [5] stands for this setting: endpoint: mean survival time, dose: 200.0 mg/kg/injection, schedule: Q01DX009 (ip), vehicle: saline with Tween-80.
Setting [6] is: endpoint: mean survival time, dose: 400.0 mg/kg/injection, schedule: Q01DX009 (ip), vehicle: saline with Tween-80.

Regarding `CC(=O)Nc1cc(N(CCOS(C)(=O)=O)CCOS(C)(=O)=O)ccc1N=O`, the T/C is 117 % of control (endpoint: mean survival time, dose: 0.25 mg/kg/injection, schedule: Q01DX009 (ip), vehicle: saline); 116 % of control (endpoint: mean survival time, dose: 0.5 mg/kg/injection, schedule: Q01DX009 (ip), vehicle: saline); 95 % of control (endpoint: mean survival time, dose: 1.0 mg/kg/injection, schedule: Q01DX009 (ip), vehicle: saline); 120 % of control (endpoint: mean survival time, dose: 1.5 mg/kg/injection, schedule: Q04DX003 (ip), vehicle: saline); 95 % of control (endpoint: mean survival time, dose: 2.0 mg/kg/injection, schedule: Q01DX009 (ip), vehicle: saline); 115 % of control (endpoint: mean survival time, dose: 3.0 mg/kg/injection, schedule: Q04DX003 (ip), vehicle: saline). Also, for the setting “endpoint: mean survival time, dose: 6.0 mg/kg/injection, schedule: Q04DX003 (ip), vehicle: saline”, the T/C was 107 % of control.

Regarding `Cc1cc(NC(=O)c2ccc(Cl)cc2)ccc1Cl`, the T/C by setting is: under setting [1], 97 % of control; under setting [2], 97 % of control; under setting [3], 106 % of control.

As to `CC1(C)OCC(CO)(Nc2nc(N3CC3)nc(N3CC3)n2)CO1`, the T/C (endpoint: mean survival time, dose: 0.31 mg/kg/injection, schedule: Q01DX009 (ip), vehicle: saline) is 111 % of control; the T/C (endpoint: mean survival time, dose: 0.62 mg/kg/injection, schedule: Q01DX009 (ip), vehicle: saline) is 117 % of control and 112 % of control; the T/C (endpoint: mean survival time, dose: 1.25 mg/kg/injection, schedule: Q01DX009 (ip), vehicle: saline) was 194 % of control; the T/C (endpoint: mean survival time, dose: 2.5 mg/kg/injection, schedule: Q01DX009 (ip), vehicle: saline) is 186 % of control and 221 % of control and 104 % of control.

For the compound `CN(C)CCCN1c2ccc(O)cc2Sc2ccc(Cl)cc21`, the T/C is 90 % of control (endpoint: mean survival time, dose: 25.0 mg/kg/injection, schedule: Q01DX009 (ip), vehicle: saline with Tween-80); 96 % of control (endpoint: mean survival time, dose: 50.0 mg/kg/injection, schedule: Q01DX009 (ip), vehicle: saline with Tween-80); 107 % of control under setting [4].

Regarding `Cc1ccc(N2C(=O)CC(Sc3ccccc3N)C2=O)cc1Cl` (configuration not stated), the T/C is 95 % of control under setting [4], 103 % of control under setting [5] and 95 % of control under setting [6].

Take `CC1(C)CC(OP(=O)(OC2CC(C)(C)N(O)C(C)(C)C2)N2CC2)CC(C)(C)N1O`: the T/C (endpoint: mean survival time, dose: 12.5 mg/kg/injection, schedule: Q01DX009 (ip), vehicle: water) is 102 % of control; the T/C (endpoint: mean survival time, dose: 25.0 mg/kg/injection, schedule: Q01DX009 (ip), vehicle: water) is 113 % of control and 104 % of control; the T/C (endpoint: mean survival time, dose: 50.0 mg/kg/injection, schedule: Q01DX009 (ip), vehicle: water) is 110 % of control; the T/C (endpoint: mean survival time, dose: 100.0 mg/kg/injection, schedule: Q01DX009 (ip), vehicle: water) was 112 % of control.

Turning to `Cc1ccc(NC(=O)CCl)cc1C`, the T/C under setting [4] was 100 % of control; the T/C under setting [1] is 96 % of control; the T/C under setting [5] was 97 % of control; the T/C under setting [2] was 95 % of control; the T/C under setting [3] is 93 % of control.

With `N/C(=N\N=C1CCCC1)N[N+](=O)[O-]`, the T/C under setting [1] is 96 % of control, the T/C under setting [2] was 102 % of control and the T/C under setting [3] was 104 % of control.

`COc1cc(OC)c(OC)cc1Br`: the T/C was 101 % of control (endpoint: mean survival time, dose: 100.0 mg/kg/injection, schedule: Q01DX009 (ip), vehicle: saline sonified); 102 % of control under setting [1]; 97 % of control (endpoint: mean survival time, dose: 200.0 mg/kg/injection, schedule: Q01DX009 (ip), vehicle: saline sonified); 102 % of control under setting [2]; 97 % of control (endpoint: mean survival time, dose: 400.0 mg/kg/injection, schedule: Q01DX009 (ip), vehicle: saline sonified); 102 % of control under setting [3].

For `Cc1cc2c(C(C)C)c(O)c(O)c(C=O)c2c(O)c1-c1c(C)cc2c(C(C)C)c(O)c(O)c(C=O)c2c1O`, the T/C was 110 % of control (endpoint: median survival time, dose: 6.25 mg/kg/injection, schedule: Q01DX009 (ip), vehicle: saline with Tween-80) and 101 % of control (endpoint: median survival time, dose: 12.5 mg/kg/injection, schedule: Q01DX009 (ip), vehicle: saline with Tween-80).

For `CC(C)(CC(=O)Nc1ccccc1)C(=O)O`, the T/C was 98 % of control and 100 % of control under setting [4]; 96 % of control and 100 % of control under setting [5]; 96 % of control and 102 % of control under setting [6].

For `CCCCCCN(CCCCCC)CP(=O)(CN(CCCCCC)CCCCCC)CN(CCCCCC)CCCCCC`, the T/C by setting is: (endpoint: mean survival time, dose: 100.0 mg/kg/injection, schedule: Q01DX001 (ip), vehicle: saline with Tween-80) 95 % of control; (endpoint: mean survival time, dose: 200.0 mg/kg/injection, schedule: Q01DX001 (ip), vehicle: saline with Tween-80) 104 % of control; (endpoint: mean survival time, dose: 400.0 mg/kg/injection, schedule: Q01DX001 (ip), vehicle: saline with Tween-80) 104 % of control.

Turning to `CC12CCC(=O)C=C1CCCC2O` (configuration not stated), the T/C is, setting by setting: (endpoint: mean survival time, dose: 100.0 mg/kg/injection, schedule: Q04DX003 (ip), vehicle: saline sonified) 97 % of control; (endpoint: mean survival time, dose: 200.0 mg/kg/injection, schedule: Q04DX003 (ip), vehicle: saline sonified) 112 % of control.

`Cc1ccc2[nH]c(=O)oc(=O)c2c1`: the T/C under setting [1] was 104 % of control, the T/C under setting [2] is 98 % of control and the T/C under setting [3] is 106 % of control.

For `CN(C)CCCOc1nc2c(c(=O)n(C)c(=O)n2C)n1C` (tested in a mixture with another compound), the T/C (endpoint: median survival time, dose: 6.25 mg/kg/injection, schedule: Q01DX009 (ip), vehicle: Klucel (hydroxypropylcellulose) (HPC)) is 111 % of control; the T/C (endpoint: median survival time, dose: 12.5 mg/kg/injection, schedule: Q01DX009 (ip), vehicle: Klucel (hydroxypropylcellulose) (HPC)) was 116 % of control and 117 % of control; the T/C (endpoint: median survival time, dose: 50.0 mg/kg/injection, schedule: Q01DX009 (ip), vehicle: Klucel (hydroxypropylcellulose) (HPC)) is 154 % of control and 176 % of control; the T/C (endpoint: median survival time, dose: 100.0 mg/kg/injection, schedule: Q01DX009 (ip), vehicle: Klucel (hydroxypropylcellulose) (HPC)) was 155 % of control and 185 % of control; the T/C (endpoint: median survival time, dose: 200.0 mg/kg/injection, schedule: Q01DX009 (ip), vehicle: Klucel (hydroxypropylcellulose) (HPC)) was 172 % of control.

For the compound `CCCCC(CC(=O)O)c1ccc(Cl)cc1` (configuration not stated), the T/C was 95 % of control under setting [1] and 101 % of control under setting [2].

Turning to `COc1cc(NCc2ccc3nc(N)nc(N)c3c2C)cc(OC)c1OC` (tested in a mixture with another compound), where the note is “endpoint: median survival time, dose: 10.0 mg/kg/injection, schedule: Q01DX005 (ip), vehicle: water”, the T/C is 115 % of control.

Regarding `Clc1nnc(Cl)c(Cl)c1Cl`, the T/C runs as follows: (endpoint: mean survival time, dose: 1.56 mg/kg/injection, schedule: Q04DX003 (ip), vehicle: saline with Tween-80) 88 % of control; (endpoint: mean survival time, dose: 3.13 mg/kg/injection, schedule: Q04DX003 (ip), vehicle: saline with Tween-80) 88 % of control.

With `Cc1nc(Cl)cc(Cl)c1C`, the T/C reads like this: (endpoint: mean survival time, dose: 178.0 mg/kg/injection, schedule: Q04DX003 (ip), vehicle: other) 100 % of control; (endpoint: mean survival time, dose: 266.0 mg/kg/injection, schedule: Q04DX003 (ip), vehicle: other) 100 % of control; (endpoint: mean survival time, dose: 400.0 mg/kg/injection, schedule: Q04DX003 (ip), vehicle: other) 95 % of control; (endpoint: mean survival time, dose: 600.0 mg/kg/injection, schedule: Q04DX003 (ip), vehicle: other) 105 % of control.

`CN(Cc1ccccc1)c1ccc2nc(N)nc(N)c2c1`: the T/C reads like this: under setting [1], 103 % of control; under setting [2], 110 % of control.

On to `C=CCN(CC=C)CC=C`, for which the T/C (endpoint: mean survival time, dose: 100.0 mg/kg/injection, schedule: Q04DX003 (ip), vehicle: saline) is 95 % of control; the T/C (endpoint: mean survival time, dose: 200.0 mg/kg/injection, schedule: Q04DX003 (ip), vehicle: saline) is 97 % of control; the T/C (endpoint: mean survival time, dose: 400.0 mg/kg/injection, schedule: Q04DX003 (ip), vehicle: saline) was 93 % of control.

Turning to `COCCCNCCCN1CC1`, the T/C runs as follows: (endpoint: mean survival time, dose: 16.62 mg/kg/injection, schedule: Q01DX009 (ip), vehicle: saline) 115 % of control; (endpoint: mean survival time, dose: 31.25 mg/kg/injection, schedule: Q01DX009 (ip), vehicle: saline) 107 % of control; (endpoint: mean survival time, dose: 62.5 mg/kg/injection, schedule: Q01DX009 (ip), vehicle: saline) 94 % of control.

On to `Nc1nc2nc(-c3ccccc3)nc(N)c2nc1-c1ccc(N(CCO)CCO)cc1`, for which the T/C (endpoint: mean survival time, dose: 45.0 mg/kg/injection, schedule: Q01DX001 (ip), vehicle: saline) is 100 % of control; the T/C (endpoint: mean survival time, dose: 67.0 mg/kg/injection, schedule: Q01DX001 (ip), vehicle: saline) is 97 % of control; the T/C (endpoint: mean survival time, dose: 100.0 mg/kg/injection, schedule: Q01DX001 (ip), vehicle: saline) is 97 % of control; the T/C (endpoint: mean survival time, dose: 150.0 mg/kg/injection, schedule: Q01DX001 (ip), vehicle: saline) was 96 % of control.

`CC(=O)Nc1ccc2ccccc2c1-c1c(NC(C)=O)ccc2ccccc12`: the T/C under setting [1] is 87 % of control and the T/C under setting [3] is 95 % of control.

For the compound `Cc1cc(C(O)(C(=O)O)c2ccccc2)cc(C)c1C` (configuration not stated), the T/C (endpoint: mean survival time, dose: 75.0 mg/kg/injection, schedule: Q01DX001 (ip), vehicle: other) is 100 % of control; the T/C (endpoint: mean survival time, dose: 150.0 mg/kg/injection, schedule: Q01DX001 (ip), vehicle: other) was 90 % of control; the T/C (endpoint: mean survival time, dose: 300.0 mg/kg/injection, schedule: Q01DX001 (ip), vehicle: other) is 105 % of control.
